{"source": "patent US20090042993A1", "about": "“IDENTIFICATION OF NOVEL POST-TRANSLATIONAL PROTEIN MODIFICATIONS” (priority 2007, published 2009)", "key": {"BACE1 [1]": {"test_system": "BACE1", "experiment": "BACE1 steady-state levels by Western blot in stably transfected CHO cells", "assay_type": "cell-based, human", "procedure": "(§1) Chinese Hamster Ovary (CHO) cells were grown in DMEM (Gibco BRL—Invitrogen, Carlsbad, Calif.) supplemented with 10% fetal bovine serum (FBS) and penicillin/streptomycin (Mediatech, Inc., Herndon, Va.) as described before (Puglielli et al., 2001, Nat. Cell Biol. 3: 905-912; Puglielli et al., 2003, J. Biol. Chem. 278: 19777-19783; Costantini et al., 2005, Biochem. J. 391: 59-67; Costantini et al., 2006, EMBO J. 25: 1997-2006). Cells were maintained in a humidified atmosphere with 5% CO2. For ceramide treatment, C6-ceramide (also simply called ceramide herein) was administered at the final concentration of 10 μM; treatment was started when cells were ˜30% confluent and carried out for 4 days, unless specified otherwise. Treatment with proteasome inhibitors MG-132 (5 μM) and lactacystin (10 μM) was done for 10 hours, as described earlier (Qing et al., 2004, FASEB J. 18: 1571-1573).\nCell lysates were prepared in GTIP buffer (100 mM Tris-pH 7.6, 20 mM EDTA, 1.5 M NaCl) with 1% Triton X-100 (Roche, Basel, Switzerland), 0.25% NP40 (Roche), and a protease inhibitor cocktail (Roche) as described before (Puglielli et al., 2003, J. Biol. Chem. 278: 19777-19783; Costantini et al., 2005, Biochem. J. 391: 59-67). Briefly, cell monolayers were washed twice in PBS, scraped, transferred into eppendorf tubes, and centrifuged at 8,000 rpm for 5 min in a table-top centrifuge. Cell pellets were then lysed in ice for 30 min with the buffer indicated above, and centrifuged again at 14,000 rpm prior to the recollection of the protein extracts. Proteins were quantitated with the BCA Protein Assay (Pierce, Rockford, Ill.) following the manufacturer's instructions.\n(§2) For the immunoprecipitation of BACE1, cell lysates were pre-cleared with BioMag Protein A (Polysciences, Inc., Warrington, Pa.); beads were used at the concentration of 15 μl of the slurry per sample and separated with a magnetic holder. BACE1 was then immunoprecipitated with anti-BACE1 antibodies overnight and recovered with BioMag Protein A as above. The immunoprecipitate-bead complexes were washed 3 times in PBS and boiled for 10 min in SDS sample buffer (Invitrogen) with β-mercaptoethanol. Beads were then separated and the samples were analyzed by reducing SDS-PAGE.\nWestern blotting was performed on 10% Bis-Tris, 4-12% Bis-Tris, or 7% Tris-Acetate SDS-PAGE systems (NuPAGE; Invitrogen) as described (Puglielli et al., 2001, Nat. Cell Biol. 3: 905-912; Puglielli et al., 2003, J. Biol. Chem. 278: 19777-19783; Costantini et al., 2005, Biochem. J. 391: 59-67; Costantini et al., 2006, EMBO J. 25: 1997-2006). The following antibodies were used: anti-BACE1 N-terminal (monoclonal antibody; R&D Systems, Minneapolis, Minn.); anti-BACE1 C-terminal (polyclonal antibody; Abcam, Cambridge, Mass.); anti-pro-BACE1 (polyclonal; Abcam); anti-acetylated lysine (monoclonal; Abcam); anti-calreticulin (ER marker, polyclonal; Abcam); anti-58 K Golgi/formiminotransferase cyclodeaminase (Golgi marker, polyclonal; Abcam); anti-syntaxin (Golgi marker, monoclonal; Abcam); anti-EEA1 (endosomes, monoclonal; BD Transduction Laboratories, Lexington, Ky.); anti-actin (polyclonal; Cell Signaling, Danvers, Mass.). Secondary antibodies (Amersham) were used at a 1:6000 dilution. Binding was detected by chemiluminescence (LumiGLO kit; KPL, Gaithersburg, Md.). Only a representative blot of at least three different experiments is shown throughout the paper.\nFIG. 1 illustrates how BACE1 is transiently acetylated in the lumen of the ER. For this experiment, CHO cells expressing human BACE1 were treated with C6-ceramide (also simply called ceramide herein) for different periods of time. BACE1 was then immunoprecipitated and analyzed by Western blotting. FIG. 1(A): CHO cells stably expressing BACE1 were treated with ceramide for the indicated time. BACE1 was immunoprecipitated from total cell lysates, separated on a 7% Tris-Acetate NuPAGE system, and then analyzed by Western blot using either anti-BACE1 or anti-acetylated lysine antibodies. […]"}, "BACE1 [2]": {"test_system": "BACE1", "experiment": "BACE1 lysine acetylation (immunoprecipitation, anti-acetylated lysine blot, LC-MS/MS mapping) in CHO cells", "assay_type": "cell-based, human", "procedure": "as §1, §2\nBACE1-myc was purified via affinity chromatography on a ProFound c-Myc-Tag IP/Co-IP kit (Pierce). Each BACE1 preparation was then precipitated by addition of 4 volumes of acetone, pelletted by centrifugation, washed, and vacuum-dried. […]\nA portion of each purified digest, corresponding to 10 μg of pre-digested protein, was analyzed by μLC-MS/MS using a Micromass Q-TOF2 spectrometer to locate acetylation sites. […] Charge dependent collision energy profiles were empirically pre-determined. […]"}, "[3]": {"details": "CHO cells stably expressing BACE1Ala grown with ceramide"}}, "data": [{"smiles": "CCCCCCCCCCCCC/C=C/[C@@H](O)[C@H](CO)NC(=O)CCCCC", "note": "[ceramide, C6-ceramide]", "values": [{"measurement": "steady-state levels of immature and mature BACE1", "setting": "BACE1 [1]; CHO cells expressing human BACE1, ceramide 10 μM, apparent plateau at day 4", "value": "progressive increase in the steady-state levels"}, {"measurement": "steady-state levels of BACE1Ala", "setting": "BACE1 [1]; [3]", "value": "not affected"}, {"measurement": "acetylation of BACE1Ala in vivo", "setting": "BACE1 [2]; [3]", "value": "did not induce acetylation"}, {"measurement": "number of acetylated lysine residues of BACE1", "setting": "BACE1 [2]; MS/MS of tryptic digests, two residues acetylated prior to ceramide treatment", "value": "increased to seven"}, {"measurement": "BACE1 acetylation", "setting": "BACE1 [2]; ceramide treatment of cells", "value": "stimulates BACE1 acetylation"}]}]}
